From patent US9242991B2, “Substituted fused heterocycles as c-Met tyrosine kinase inhibitors” (BETTA PHARMACEUTICALS CO., LTD, priority 2010, dated 2016)
Where “and” joins values, the source holds several entries; their conditions need not be identical. Identical values can stand only once.

Assays:
[1] = test system: U87MG, MKN45, H441 and Caki-1 tumors; assay: Xenograft Tumor Models (U87MG, MKN45, H441, Caki-1); type: in vivo, human; details: oral gavage, athymic nude mice
Method: (§1) Human glioblastoma cells U87MG, human gastric cancer cells MKN45, human non small cell lung cancer cells H441, and human renal carcinoma cells Caki-1 are expanded in culture, harvested, and injected subcutaneous Iy onto the rear flank of athymic nude mice. Testing compound is prepared in an appropriate vehicle and is administered by oral gavage when tumors are established (7-21 days after implant). Tumor response is determined by tumor volume measurement performed twice a week during the course of treatment. Tumor volume inhibition (% growth inhibition) is calculated by comparing treated groups to a vehicle control group. Body weight is taken as a general measurement of toxicity. […] At 60 mg/kg dose (PO, BID×35), 82% growth inhibition is achieved. At 120 mg/kg dose (PO, BID×35), 92% growth inhibition reaches.

[2] = molecular target: T1, c-Met phosphorylation in SI 14 tumors (human c-Met) (Homo sapiens, UniProt P08581); assay: c-Met In Vivo Target Inhibition Assay (SI 14 tumors in nude mice, phosphor-Met ELISA); details: oral gavage, read-out: ED50 (dose that produces 50% inhibition in tumor)
T1 construct: host or cells: SI 14 (S114) cells as subcutaneous tumours in athymic nude mice
Method: SI 14 cells (licensed from PHS, over-express both human HGF and human c-Met) are cultured in a growth media (Dulbecco's Modified Eagle Medium) supplemented with 10% fetal calf serum and expanded. Cells are harvested and washed twice with phosphate buffered saline and 2×10^6 cells are mixed with equal volume of BD Matrigel™ matrix (BD Bioscience, Franklin, N.J.), and injected subcutaneous Iy into the flank of nude mice (athymic nude, from Harlan, Indianapolis, Ind.). At day 8 after implant, compounds (formulated in 10% acacia or 1% carboxymethylcellulose/0.5% sodium lauryl sulfate/0.05% antifoam as suspension) are administered to animals by oral gavage at 50 mg/kg. Animals are sacrificed at 2 hours post dose, and tumors are harvested and stored frozen until needed.
Frozen tumors are pulverized using motar-pastel. The pulverized tissues are transferred to a tube containing Lysing Matrix D beads (MP Biomedicals, Solon, Ohio) and 600 μL lysis buffer (RIPA buffer, containing 50 mM Tris-HCl, pH7.4, 150 mM NaCl, 1% NP-40, 0.5% sodium deoxycholate, 0.1% SDS, from Boston Bioproducts). A FastPrep® Cell Disrupter (MP Biomedicals) is used to disrupt the tissue and lyse the cells. […] Protein concentration is determined by Bradford method. Tumor lysates are loaded onto MSD® phosphor-Met ELISA plates and phosphor-c-Met level is determined using the same protocol as H460 cell-based ELISA. […]

[3] = test system: U87MG tumors; assay: Xenograft tumor model, U87MG; type: in vivo, human; details: BID×35, athymic nude mice
Method: as §1

[4] = molecular target: T2, c-Met phosphorylation (pY1349) in NCI-H460 cells (Homo sapiens, UniProt P08581); assay: HGF Stimulated Met (pY1349) NCI-H460 Cell-based ELISA; details: for Mean (Counts − Blanks) / Mean of Activity (% Control) / Activity (% Control) / Counts: 0.2 μM compound; for Mean of Activity (% Control): mean of replicates; for Activity (% Control) / Counts: single replicates
T2 construct: host or cells: NCI-H460
Method: HGF Stimulated Met (pY1349) NCI-H460 Cell-based ELISA NCI-H460 cells (purchased from ATCC) are cultured in RPMI 1640 media (Invitrogen) supplemented with 10% Fetal Bovine Scrum (FBS) and plated (prior to becoming 70% confluent) in 96-well flat-bottom plates at a density of 20,000 cells per well in 80 μL volume. The cells are then incubated overnight in a cell culture incubator (5% CO2, 95% Relative Humidity (RH) and 37° C.) and allowed to attach to the plate. The following morning the cells are washed with 2 volumes of a Reduced Serum Media (RSM) (RPMI 1640 media supplemented with 0.5% FBS). After removal of the last wash, 80 µL of RSM is added to each well of the cell plates. The cell plates are incubated for 2.5 hours in a cell culture incubator, and then dosed with compounds. Compound inhibitors are first solubilized at 10 mM in 100% DMSO and then diluted to 100 μM with 2% DMSO RSM. Subsequently compound serial dilutions (1:3) are prepared over a 100 μM to 0.005 μM range. Cells are dosed with the addition of 20 μL of compound stock to produce a final DMSO concentration of 0.4% and a final compound concentration dose range between 20 and 0.001 μM. After dosing with compounds the cells plates are gently agitated to mix and then allowed to incubate for 30 min in a cell culture incubator. After dose completion, the cells are stimulated with the addition of 20 μL per well of Hepatocyte Growth Factor (HGF) at a final concentration of 100 ng/mL in RSM (all wells except MIN wells are stimulated, MIN wells are dosed with 20 μL RSM). After 10 min incubation in a cell culture incubator, the liquid is removed from the cell plate wells, and the cells are lysed by the addition of 50 μL of ice-cold Meso Scale Discovery® (MSD, Gaithersburg, Md.) IX Lysis Buffer (150 mM NaCl, 20 mM Tris, pH7.5, 1 mM EDTA, 1 mM ethylene glycol tetraacetic acid, and 1% TRITON® X-100) supplemented with Phosphatase I and II and Protease inhibitors (Sigma, St. Louis, Mo.). After lysis at RT for 30 min the lysates are transferred to and captured on a MSD® Multi-Spot 96-well. 4-spot PhosphoMet plate that is BSA-blocked (at 30 mg/mL Block A in IX Tris Wash Buffer) and then washed one time with Tris Wash Buffer. After 2 hours capture (at RT) the lysates are removed from the MSD® plate and the plate is washed with IX Tris Wash Buffer. After blotting, 25 μL of 5 nM Sulfo-Tag Anti-Total Met antibody (detection antibody, MSD® prepared in IX Tris Wash Buffer supplemented with 10 mg/mL BSA and 0.1% Blocker D-R (MSD®)) is added to the wells of the MSD® plate. After 1 hour capture (at RT) the MSD® plate wells are washed with IX Tris Wash Buffer, and then 150 μL of IX Read Buffer T (with surfactant, MSD®) is added. Immediately after the addition of the Read Buffer, the plates are analyzed with a SECTOR 6000 MSD® Imager plate reader. Relative IC50 values are determined using MSD activity units by calculating percent inhibition with respect to on-plate “MIN” and “MAX” controls and then fitting the percent inhibition values and ten-point dose response data to a four-parameter logistic equation. This assay has a Minimum Significant Ratio (MSR) of 2.06.

T2 sequence (P08581 25-1390): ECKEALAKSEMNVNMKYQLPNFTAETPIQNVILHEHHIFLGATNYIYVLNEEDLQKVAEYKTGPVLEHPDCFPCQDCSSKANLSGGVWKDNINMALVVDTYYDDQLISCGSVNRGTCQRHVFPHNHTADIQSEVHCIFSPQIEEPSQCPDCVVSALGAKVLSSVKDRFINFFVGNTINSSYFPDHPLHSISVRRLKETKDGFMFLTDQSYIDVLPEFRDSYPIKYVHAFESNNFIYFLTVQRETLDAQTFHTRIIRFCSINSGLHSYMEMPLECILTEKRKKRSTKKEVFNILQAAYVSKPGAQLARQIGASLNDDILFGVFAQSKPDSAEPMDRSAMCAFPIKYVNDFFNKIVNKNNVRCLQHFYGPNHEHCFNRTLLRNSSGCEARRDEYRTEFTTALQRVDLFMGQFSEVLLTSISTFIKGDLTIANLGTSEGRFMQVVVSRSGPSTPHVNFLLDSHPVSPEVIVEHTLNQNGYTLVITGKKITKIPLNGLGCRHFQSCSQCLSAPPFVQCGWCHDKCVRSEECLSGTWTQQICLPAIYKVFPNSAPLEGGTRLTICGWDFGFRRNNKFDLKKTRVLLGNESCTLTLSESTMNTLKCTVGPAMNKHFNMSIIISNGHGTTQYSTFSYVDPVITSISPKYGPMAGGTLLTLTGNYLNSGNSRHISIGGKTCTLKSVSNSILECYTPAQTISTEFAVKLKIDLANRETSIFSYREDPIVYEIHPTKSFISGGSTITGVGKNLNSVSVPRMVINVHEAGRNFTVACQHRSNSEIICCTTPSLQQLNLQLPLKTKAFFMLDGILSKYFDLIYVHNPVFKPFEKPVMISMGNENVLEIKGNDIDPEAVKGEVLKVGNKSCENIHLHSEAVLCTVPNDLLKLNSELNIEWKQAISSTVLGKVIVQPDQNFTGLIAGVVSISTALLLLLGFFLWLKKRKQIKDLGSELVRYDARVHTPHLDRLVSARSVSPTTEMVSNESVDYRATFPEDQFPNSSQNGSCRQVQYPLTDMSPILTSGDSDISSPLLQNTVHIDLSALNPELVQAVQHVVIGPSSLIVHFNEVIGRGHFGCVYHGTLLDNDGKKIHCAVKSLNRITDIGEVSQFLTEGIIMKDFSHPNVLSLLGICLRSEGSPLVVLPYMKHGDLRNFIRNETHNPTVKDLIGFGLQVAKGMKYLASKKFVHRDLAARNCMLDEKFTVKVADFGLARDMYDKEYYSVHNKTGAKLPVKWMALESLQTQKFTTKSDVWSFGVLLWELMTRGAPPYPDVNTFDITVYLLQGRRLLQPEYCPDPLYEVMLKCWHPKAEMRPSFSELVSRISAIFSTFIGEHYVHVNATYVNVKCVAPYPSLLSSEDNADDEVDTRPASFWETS
T1 sequence (P08581 25-1390): as above

ED50 [2] [mg/kg] | melting point [°C] | Mean (Counts − Blanks) [4] | Mean of Activity (% Control) [4] [% Control] | Activity (% Control) [4] [% Control] | Counts [4] | IC50 ([4]; NCI-H460 cells, HGF 100 ng/mL, Example 1 value is average of n=6, read-out: IC50 (inhibition of c-Met phosphorylation in cells)) [nM] | Activity (% Control) ([4]; 0.2 µM) | SMILES | anti-tumor activity in xenograft models [1] | growth inhibition of U87MG tumors ([3]; 30 mg/kg PO) [%] | growth inhibition of U87MG tumors ([3]; 60 mg/kg PO) [%] | growth inhibition of U87MG tumors ([3]; 120 mg/kg PO) [%]
2.9 | 188 to 190 | 50 | 0 | 0 | 1008 and 895 | 35.2 |  | O=C(Nc1ccc(Oc2ncnc3cc4c(cc23)OCCOCCOCCO4)c(F)c1)c1c[nH]cc(-c2ccc(F)cc2)c1=O [Example 1, 5-(4-Fluoro-phenyl)-4-oxo-1,4-dihydro-pyridine-3-carboxylic acid [3-fluoro-4-(7,8,10,11,13,14-hexahydro-6,9,12,15-tetraoxa-1,3-diaza-cyclododeca[b]naphthalen-4-yloxy)-phenyl]-amide] | excellent dose dependent anti-tumor activity | 59 | 82 | 92
 |  | 29068 | 25 |  | 30847 and 29093 |  | 29 % Control and 21 % Control | Cn1c(Nc2ccc(F)cc2)ncc(-c2ccc(Oc3ncnc4cc5c(cc34)OCCOCCOCCO5)cn2)c1=O [Example 6, 2-(4-Fluoro-phenylamino)-5-[5-(7,8,10,11,13,14-hexahydro-6,9,12,15-tetraoxa-1,3-diaza-cyclododeca[b]naphthalen-4-yloxy)-pyridin-2-yl]-3-methyl-3H-pyrimidin-4-one] |  |  |  | 
 |  | 28728 | 24 |  | 30429 and 28830 |  | 27 % Control and 20 % Control | Cn1c(Nc2ccc(F)cc2)ncc(-c2ccc(Oc3ncnc4cc5c(cc34)OC(F)(F)O5)cn2)c1=O [Example 8, 5-[5-(2,2-Difluoro-[1,3]dioxolo[4,5-g]quinazolin-8-yloxy)-pyridin-2-yl]-2-(4-fluoro-phenylamino)-3-methyl-3H-pyrimidin-4-one] |  |  |  | 
 |  | 27649 | 19 |  | 28364 and 28738 |  | 18 % Control and 20 % Control | O=C(Nc1ccc(Oc2ncnc3cc4c(cc23)OCO4)c(F)c1)c1c[nH]cc(-c2ccc(F)cc2)c1=O [Example 9, 5-(4-Fluoro-phenyl)-4-oxo-1,4-dihydro-pyridine-3-carboxylic acid [4-([1,3]dioxolo[4,5-g]quinazolin-8-yloxy)-3-fluoro-phenyl]-amide] |  |  |  | 
 | 188 to 190 | 28866 | 25 |  | 30524 and 29012 |  | 28 % Control and 21 % Control | O=C(Nc1ccc(Oc2ccnc3cc4c(cc23)OCCOCCOCCO4)c(F)c1)c1c[nH]cc(-c2ccc(F)cc2)c1=O [Example 10, 5-(4-Fluoro-phenyl)-4-oxo-1,4-dihydro-pyridine-3-carboxylic acid [3-fluoro-4-(7,8,10,11,13,14-hexahydro-6,9,12,15-tetraoxa-1-aza-cyclododeca[b]naphthalen-4-yloxy)-phenyl]-amide] |  |  |  | 
 |  | 31407 | 35 |  | 32582 and 32035 |  | 36 % Control and 34 % Control | O=C(Nc1ccc(Oc2ccnc3cc4c(cc23)OCCOCCOCCO4)c(F)c1)c1cccn(-c2ccc(F)cc2)c1=O [Example 11, 1-(4-Fluoro-phenyl)-2-oxo-1,2-dihydro-pyridine-3-carboxylic acid [3-fluoro-4-(7,8,10,11,13,14-hexahydro-6,9,12,15-tetraoxa-1-aza-cyclododeca[b]naphthalen-4-yloxy)-phenyl]-amide] |  |  |  | 
 |  | 32073 | 39 |  | 34234 and 31716 |  | 44 % Control and 33 % Control | Cn1c(Nc2ccc(F)cc2)ncc(-c2ccc(Oc3ncnc4cc5c(cc34)OCCCO5)cn2)c1=O [Example 20, 5-[5-(8,9-Dihydro-7H-6,10-dioxa-1,3-diaza-cyclohepta[b]naphthalen-4-yloxy)-pyridin-2-yl]-2-(4-fluoro-phenylamino)-3-methyl-3H-pyrimidin-4-one] |  |  |  | 
 |  | 29384 | 27 |  | 31741 and 28830 |  | 33 % Control and 20 % Control | CN1CCOc2cc3ncnc(Oc4ccc(-c5cnc(Nc6ccc(F)cc6)n(C)c5=O)nc4)c3cc2OCC1 [Example 21, 2-(4-Fluoro-phenylamino)-3-methyl-5-[5-(9-methyl-8,9,10,11-tetrahydro-7H-6,12-dioxa-1,3,9-triaza-cyclonona[b]naphthalen-4-yloxy)-pyridin-2-yl]-3H-pyrimidin-4-one] |  |  |  | 
 |  | 30 | 1 |  | 1070 and 793 |  | 1 % Control and 0 % Control | Cn1c(Nc2ccccc2)ncc(-c2ccc(Oc3ccnc4cc5c(cc34)OC(F)(F)O5)cn2)c1=O [Example 28, 5-[5-(2,2-Difluoro-[1,3]dioxolo[4,5-g]quinolin-8-yloxy)-pyridin-2-yl]-2-(phenylamino)-3-methyl-3H-pyrimidin-4-one] |  |  |  | 
 |  | 17936 | 37 |  | 20248 and 17427 |  | 43 % Control and 31 % Control | Cn1c(Nc2ccccc2)ncc(-c2ccc(Oc3ccnc4cc5c(cc34)OCCOCCOCCOCCOCCO5)cn2)c1=O [Example 31, 5-[5-(2,5,8,11,14,17-Hexaoxa-21-aza-tricyclo[16.8.0.020,25]hexacosa-1(18), 19,21,23,25-pentaen-24-yloxy)-pyridin-2-yl]-3-methyl-2-phenylamino-3 H-pyrimidin-4-one] |  |  |  | 
